From article PMC9138102, “The Role of ZIP9 and Androgen Receptor in the Establishment of Tight Junctions between Adult Rat Sertoli Cells” (Biology, 2022)

Assays:
[1] = exogenous testosterone; cited from earlier work
Erk1/2 = test: phospho-Erk1/2 immunofluorescence in PASC1 cells after AR or ZIP9 silencing; type: cell-based, rat; conditions: 10 nM testosterone or 10 µM IAPG, 24 h
Experimental: (§1) PASC1 cells were plated at a density of 3.0 × 10^4 on 24-well plates (1 mL/well) and incubated 48 h at 37 °C and 5% CO2 until a confluence of roughly 80% was reached. Cells were rinsed with DPBS and fixed with 100% ice-cold methanol (Roth, Karlsruhe, Germany) on ice for 10 min directly or after stimulation with vehicle, 10 nM testosterone, or 1 µM P1 for 24 h. Cells were then washed with DPBS three times for 5 min, and then incubated in blocking solution (PBS with 3% BSA and 0.3% Triton X-100, both from Sigma-Aldrich) for 1 h at room temperature. The blocking solution was replaced by fresh blocking solution containing the primary antibodies for detection of either AR, p-Erk1/2, p-CREB/p-ATF-1, claudin-1 (Cldn-1), or zonula occludens-1 (ZO-1) (Supplementary Table S1) and incubated overnight at 4 °C. Cells were washed 3 times with DPBS for 3 min each at RT on an orbital shaker, freshly made blocking solution with the appropriate Alexafluor 488-conjugated donkey anti-rabbit secondary antibody was added for 1 h at room temperature on an orbital shaker. After washing 3 times with DPBS, images were obtained using an inverse Olympus IX81 microscope equipped with a fluorescence system. […] The data obtained were analyzed by GraphPad Prism5 (GraphPad Software, Inc., La Jolla, CA, USA).
(§2) For silencing ZIP9 or AR expression, PASC1 cells were treated with commercially available siRNA directed against the expression of ZIP9 or the AR by following the manufacturer’s protocol (Silencer ® Select, siRNA Invitrogen, Darmstadt, Germany). The following oligonucleotides were used: 5′ […]tt3′ and 5′ […]ta 3′ (ZIP9-siRNA for ZIP9 silencing) and 5′[…]tt3′ plus 5′ […]ag 3′ (AR-siRNA for AR silencing). Negative control siRNA (nc-siRNA) was provided in the siRNA kit from the same manufacturer. After incubation of PASC1 for 48 h with ZIP9-siRNA, AR-siRNA, or nc-siRNA, preparation of samples for qRT-PCR, TER measurement, or immunofluorescence experiments were carried out as described above.

ZO-1 = ZO-1 expression in PASC1 cells, immunofluorescence; type: cell-based, rat; conditions: 10 nM testosterone or 10 µM IAPG, 24 h, n = 3 × 25
Experimental: as §1, with “Cells were rinsed with DPBS and fixed with 100% ice-cold methanol (Roth, Karlsruhe, Germany) on ice for 10 min directly or after stimulation with vehicle, 10 nM testosterone, or 1 µM P1 for 24 h.” left out
as §2

PASC1 cells = test: Transepithelial electrical resistance (TER) across PASC1 cell layers; type: cell-based, rat; conditions: 10 nM testosterone or 10 µM IAPG, 0, 24, 48, 72 h, n = 6, means ± SEM
Experimental: TER measurements were performed as described. Briefly, 6.0 × 10^4 cells/cm^2 of androgen receptor (AR)- or ZIP9-knockdown PASC1 or non-treated PASC1 cells were seeded on 0.4 μm inserts of 24-well plates (Greiner bio one, Frickenhausen, Germany) and cultured for 48 h until they reached confluence. […] As testosterone was dissolved in ethanol (vehicle), the same volume of ethanol was added to the peptide-treated cells and untreated controls. TER measurements were made with a Millicell ERS-2 epithelial Volt-Ohm meter (Merck Millipore, Darmstadt, Germany). ΩXcm^2 was calculated according to the protocol of the manufacturer by setting the resistance of cell-free inserts to zero.
as §2

AR = AR nuclear translocation in PASC1 cells (immunofluorescence); type: cell-based, rat; conditions: 2 h
Experimental: PASC1 cells were plated at a density of 3.0 × 10^4 on 24-well plates (1 mL/well) and incubated 48 h at 37 °C and 5% CO2 until a confluence of roughly 80% was reached. Cells were rinsed with DPBS and fixed with 100% ice-cold methanol (Roth, Karlsruhe, Germany) on ice for 10 min directly or after stimulation with vehicle, 10 nM testosterone, or 1 µM P1 for 24 h. Cells were then washed with DPBS three times for 5 min, and then incubated in blocking solution (PBS with 3% BSA and 0.3% Triton X-100, both from Sigma-Aldrich) for 1 h at room temperature. The blocking solution was replaced by fresh blocking solution containing the primary antibodies for detection of either AR, p-Erk1/2, p-CREB/p-ATF-1, claudin-1 (Cldn-1), or zonula occludens-1 (ZO-1) (Supplementary Table S1) and incubated overnight at 4 °C. […] After washing 3 times with DPBS, images were obtained using an inverse Olympus IX81 microscope equipped with a fluorescence system. A total of 30 cells from 3 independent experiments (30 × 3) localized closest to the diagonals of the square optical field were selected and the manually surrounded green fluorescence was quantified by ImageJ (available at http://rsbweb.nih.gov/ij/, last accessed 28 February 2022) following the protocol of the software provider.

Cldn-1 = Cldn-1 expression in PASC1 cells, immunofluorescence; type: cell-based, rat; conditions: 10 nM testosterone or 10 µM IAPG, 24 h, n = 3 × 25
Experimental: as §1, §2

Sertoli cell line 93RS2 = conditions: 93RS2 cells; ZIP9-mediated; cited from earlier work
Source text: The testosterone receptor responsible for the stimulation of the expression of TJ proteins and the formation of the BTB, however, remains to be defined. The classical androgen receptor (AR) has for decades been undisputed as the mediator of all testosterone effects, including the stimulation of TJ formation at the BTB; however, recent investigations have challenged this assumption. ZIP9, a rather recently identified membrane-bound androgen receptor and zinc transporter from the family of ZRT/IRT-like proteins (ZRT = zinc-regulated transporter; IRT = iron-regulated transporter) ...

## C[C@]12CC[C@H]3[C@@H](CCC4=CC(=O)CC[C@@]43C)[C@@H]1CC[C@@H]2O [testosterone]
[1]
  Effect on hypothalamic–pituitary–gonadal axis hormones: prevents GnRH release from the hypothalamus and FSH and LH from the pituitary, leading to the impairment of testosterone production in Leydig cells
  Effect on male fertility: unfavorably affects male fertility
  Germ cell production: germ cell production under these conditions is halted
  Severe side effects: polycythemia, cardiac hypertrophy, and myocardial infarction
Erk1/2
  Stimulatory effect on Erk1/2 phosphorylation, nc-siRNA versus AR-siRNA: not significantly different from each other
Erk1/2; AR-siRNA, ** p ≤ 0.01
  Erk1/2 phosphorylation (green fluorescence): responded with augmented phosphorylation of Erk1/2
Erk1/2; ZIP9-siRNA, ns
  Erk1/2 phosphorylation (green fluorescence): entirely prevented stimulation of Erk1/2 phosphorylation
Erk1/2; nc-siRNA, ** p ≤ 0.01
  Erk1/2 phosphorylation (green fluorescence): low (Figure 6A) relative to the signal obtained in cells exposed to testosterone
ZO-1
  Stimulated ZO-1 fluorescence, nc-siRNA versus AR-siRNA: not significantly different
ZO-1; ZIP9-siRNA
  ZO-1 expression (fluorescence signal): The ZO-1 fluorescence was unchanged by the ligands
ZO-1; nc-siRNA
  ZO-1 expression (fluorescence signal): the ZO-1-corresponding signal was significantly intensified
PASC1 cells; AR-siRNA
  TJ formation (TER): had the same effect
PASC1 cells; ZIP9-siRNA
  TJ formation (TER): failed to stimulate TJ formation
PASC1 cells; nc-siRNA
  TJ formation (TER): tighter TJ than the control already after 1 day of treatment, as demonstrated by increased TER
AR; testosterone 10 nM
  AR localization / translocation into the nucleus: all green fluorescence was found within the nuclei
Cldn-1; AR-siRNA
  Cldn-1 expression: stimulated the expression of Cldn-1
Cldn-1; ZIP9-siRNA
  Cldn-1 expression: failed to do so
Cldn-1; nc-siRNA
  Cldn-1 expression: stimulated the expression of Cldn-1
Sertoli cell line 93RS2
  Expression of claudin-1 and claudin-5: increased expression of claudin-1 and claudin-5
  TJ formation: enhanced TJ formation

## IAPG
Erk1/2
  Stimulatory effect on Erk1/2 phosphorylation, nc-siRNA versus AR-siRNA: not significantly different from each other
Erk1/2; AR-siRNA, ** p ≤ 0.01
  Erk1/2 phosphorylation (green fluorescence): responded with augmented phosphorylation of Erk1/2
Erk1/2; ZIP9-siRNA, ns
  Erk1/2 phosphorylation (green fluorescence): entirely prevented stimulation of Erk1/2 phosphorylation
Erk1/2; nc-siRNA, ** p ≤ 0.01
  Erk1/2 phosphorylation (green fluorescence): low (Figure 6A) relative to the signal obtained in cells exposed to testosterone (Figure 6B) or IAPG
ZO-1
  Stimulated ZO-1 fluorescence, nc-siRNA versus AR-siRNA: not significantly different
ZO-1; ZIP9-siRNA
  ZO-1 expression (fluorescence signal): The ZO-1 fluorescence was unchanged by the ligands
ZO-1; nc-siRNA
  ZO-1 expression (fluorescence signal): the ZO-1-corresponding signal was significantly intensified
PASC1 cells; AR-siRNA
  TJ formation (TER): had the same effect
PASC1 cells; ZIP9-siRNA
  TJ formation (TER): failed to stimulate TJ formation
PASC1 cells; nc-siRNA
  TJ formation (TER): tighter TJ than the control already after 1 day of treatment, as demonstrated by increased TER
AR; IAPG 10 µM
  AR localization / translocation into the nucleus: A translocation of the AR from the cytosol into the nucleus did not occur
Cldn-1; AR-siRNA
  Cldn-1 expression: stimulated the expression of Cldn-1
Cldn-1; ZIP9-siRNA
  Cldn-1 expression: failed to do so
Cldn-1; nc-siRNA
  Cldn-1 expression: stimulated the expression of Cldn-1
